Measured values as given in patent US11926614B2, “1,2,4-triazole derivatives as tankyrase inhibitors” (priority 2018, dated 2024).
Where two headings read alike, the source gives them in different places.

Experiments:
HEK293 = test: Cellular IC50 HEK293; assay type: cell-based
Excerpt: (§1) XLfit (idbs) was used to determine the IC50-values in inhibition experiments. The following formula was chosen to fit the data points (Langmuir Binding Isotherm): fit=((A+(B*x))+4(C−B)*(1−exp((−1*D)*x)))/D)), res=(y−fit)

TNKS2 = TNKS2 (Homo sapiens (Human), UniProt Q9H2K2); test: Biochemical IC50 TNKS2
Excerpt: as §1

[1] = Homo sapiens, HEK293, HEK293; read-out: Cellular IC50 HEK293
[2] = read-out: Biochemical IC50 TNKS2
[3] = Homo sapiens, HEK293, read-out: Cellular IC50 HEK293
[4] = Homo sapiens, HEK293; read-out: Cellular IC50 HEK293

TNKS2, sequence (Q9H2K2 whole entry): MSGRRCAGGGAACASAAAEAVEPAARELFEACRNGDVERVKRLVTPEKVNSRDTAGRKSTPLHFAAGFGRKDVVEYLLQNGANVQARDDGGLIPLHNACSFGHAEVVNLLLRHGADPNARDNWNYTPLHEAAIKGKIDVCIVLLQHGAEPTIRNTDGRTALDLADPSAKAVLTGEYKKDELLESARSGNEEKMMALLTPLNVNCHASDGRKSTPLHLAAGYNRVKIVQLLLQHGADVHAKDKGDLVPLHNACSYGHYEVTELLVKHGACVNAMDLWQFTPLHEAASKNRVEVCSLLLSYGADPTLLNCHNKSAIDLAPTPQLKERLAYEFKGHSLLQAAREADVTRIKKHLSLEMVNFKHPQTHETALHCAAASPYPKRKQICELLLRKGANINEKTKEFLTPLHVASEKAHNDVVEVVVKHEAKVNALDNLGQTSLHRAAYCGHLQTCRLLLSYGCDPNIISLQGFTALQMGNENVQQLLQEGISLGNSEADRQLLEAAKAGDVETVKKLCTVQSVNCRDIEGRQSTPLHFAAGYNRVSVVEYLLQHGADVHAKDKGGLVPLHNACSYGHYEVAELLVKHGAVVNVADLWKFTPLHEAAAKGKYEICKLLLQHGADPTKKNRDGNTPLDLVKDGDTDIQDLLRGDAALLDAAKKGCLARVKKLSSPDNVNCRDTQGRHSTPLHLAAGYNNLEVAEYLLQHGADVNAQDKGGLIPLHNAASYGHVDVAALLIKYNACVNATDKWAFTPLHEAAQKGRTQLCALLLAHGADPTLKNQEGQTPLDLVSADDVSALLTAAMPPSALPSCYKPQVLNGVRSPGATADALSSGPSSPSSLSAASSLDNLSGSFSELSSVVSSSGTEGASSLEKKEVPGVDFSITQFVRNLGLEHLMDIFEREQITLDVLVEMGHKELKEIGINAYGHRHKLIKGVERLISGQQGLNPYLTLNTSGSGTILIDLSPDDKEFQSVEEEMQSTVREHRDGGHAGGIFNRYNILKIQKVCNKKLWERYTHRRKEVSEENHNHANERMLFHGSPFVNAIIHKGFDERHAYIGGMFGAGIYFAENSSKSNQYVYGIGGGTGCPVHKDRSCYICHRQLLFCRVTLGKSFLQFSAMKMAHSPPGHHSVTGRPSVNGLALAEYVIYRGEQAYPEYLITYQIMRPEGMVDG

Work on `[2H]C([2H])([2H])C([2H])([2H])Oc1ccc(-c2nnc([C@H]3C[C@H](NC(=O)c4cccc5cc(F)cnc45)C3)n2-c2ccccc2F)nc1` [Example 141, N-((1S,3r)-3-(5-(5-(ethoxy-d5)pyridin-2-yl)-4-(2-fluorophenyl)-4H-1,2,4-triazol-3-yl)cyclobutyl)-3-fluoroquinoline-8-carboxamide] yielded an IC50 (HEK293; [1]) of 1.1 nM and an IC50 (TNKS2) of 2.9 nM.
`CCOc1ccc(-c2nnc([C@H]3C[C@H](NC(=O)c4cccc(C(C)O)n4)C3)n2-c2ccccc2F)nc1` (stereo partly drawn) [Example 128, N-((1R,3r)-3-(5-(5-ethoxypyridin-2-yl)-4-(2-fluorophenyl)-4H-1,2,4-triazol-3-yl)cyclobutyl)-6-(1-hydroxyethyl)picolinamide] gave an IC50 (HEK293; [1]) of 230 nM and an IC50 (TNKS2; [2]) of 37 nM.
Molecule `O=C(N[C@H]1C[C@H](c2nnc(-c3nccs3)n2-c2ccccc2Cl)C1)c1ccccn1` [Example 42, N-((1S,3r)-3-(4-(2-chlorophenyl)-5-(thiazol-2-yl)-4H-1,2,4-triazol-3-yl)cyclobutyl)picolinamide] has an IC50 (HEK293; [1]) of 20 nM and an IC50 (TNKS2; [2]) of 5.9 nM.
`O=C(N[C@H]1C[C@H](c2nnc(-c3ccccc3)n2-c2ccccc2F)C1)c1ccccn1` [Example 174, N-((1S,3r)-3-(4-(2-fluorophenyl)-5-phenyl-4H-1,2,4-triazol-3-yl)cyclobutyl)picolinamide] showed an IC50 (HEK293; [3]) of 789 nM and an IC50 (TNKS2; [2]) of 216 nM.
In the case of `CCOc1ccc(-c2nnc([C@H]3C[C@H](NC(=O)c4cccc(C(C)(C)O)n4)C3)n2-c2ccccc2F)nc1` [Example 129, N-((1S,3r)-3-(5-(5-ethoxypyridin-2-yl)-4-(2-fluorophenyl)-4H-1,2,4-triazol-3-yl)cyclobutyl)-6-(2-hydroxypropan-2-yl) picolinamide], the IC50 (HEK293; [1]) is reported as 649 nM and the IC50 (TNKS2; [2]) is reported as 210 nM.
In the case of `O=C(N[C@H]1C[C@H](c2nnc(-c3ccncn3)n2-c2ccccc2Cl)C1)c1cccc(F)n1` [Example 19, N-((1S,3r)-3-(4-(2-chlorophenyl)-5-(pyrimidin-4-yl)-4H-1,2,4-triazol-3-yl)cyclobutyl)-6-fluoropicolinamide], the IC50 (HEK293; [1]) is reported as 0.86 nM and the IC50 (TNKS2; [2]) is reported as 3 nM.
`CCOc1ccc(-c2nnc([C@H]3C[C@H](NC(=O)c4ccnc5cccnc45)C3)n2-c2ccccc2F)nc1` [Example 55, N-((1S,3r)-3-(5-(5-ethoxypyridin-2-yl)-4-(2-fluorophenyl)-4H-1,2,4-triazol-3-yl)cyclobutyl)-1,5-naphthyridine-4-carboxamide] was tested, and the IC50 (HEK293; [4]) was 0.814 nM and the IC50 (TNKS2; [2]) was 2 nM.
`O=C(N[C@H]1C[C@H](c2nnc(-c3nccs3)n2-c2ccncc2)C1)c1cccc2cccnc12` [Example 146, N-((1r,3r)-3-(4-(pyridin-4-yl)-5-(thiazol-2-yl)-4H-1,2,4-triazol-3-yl)cyclobutyl)quinoline-8-carboxamide] gave an IC50 (HEK293; [1]) of 80 nM and an IC50 (TNKS2; [2]) of 16 nM.
Work on `CCOc1ccc(-c2nnc([C@H]3C[C@H](NC(=O)c4ccc5ncccc5n4)C3)n2-c2ccncc2)nc1` [Example 169, N-((1r,3r)-3-(5-(5-ethoxypyridin-2-yl)-4-(pyridin-4-yl)-4H-1,2,4-triazol-3-yl)cyclobutyl)-1,5-naphthyridine-2-carboxamide] yielded an IC50 (HEK293; [1]) of 58 nM and an IC50 (TNKS2; [2]) of 28 nM.
`CCOc1ccc(-c2nnc([C@H]3C[C@H](NC(=O)c4cn5ccccc5n4)C3)n2-c2ccccc2F)nc1` [Example 118, N-((1S,3r)-3-(5-(5-ethoxypyridin-2-yl)-4-(2-fluorophenyl)-4H-1,2,4-triazol-3-yl)cyclobutyl)imidazo[1,2-a]pyridine-2-carboxamide] was tested, and the IC50 (HEK293; [1]) was 100 nM and the IC50 (TNKS2; [2]) was 12 nM.
For `O=C(N[C@H]1C[C@H](c2nnc(-c3nccs3)n2-c2ccccn2)C1)c1ccnc2cc(F)cnc12` [Example 39, 7-fluoro-N-((1r,3r)-3-(4-(pyridin-2-yl)-5-(thiazol-2-yl)-4H-1,2,4-triazol-3-yl)cyclobutyl)-1,5-naphthyridine-4-carboxamide], the IC50 (HEK293; [1]) was 16 nM and the IC50 (TNKS2; [2]) was 28 nM.
`O=C(N[C@H]1C[C@H](c2nnc(-c3ccncn3)n2-c2ccccc2Cl)C1)c1cccnc1` [Example 9, N-((1S,3r)-3-(4-(2-chlorophenyl)-5-(pyrimidin-4-yl)-4H-1,2,4-triazol-3-yl)cyclobutyl)nicotinamide] showed an IC50 (HEK293; [1]) of 50 nM and an IC50 (TNKS2; [2]) of 18 nM.
For `O=C(N[C@H]1C[C@H](c2nnc(-c3cnccn3)n2-c2ccccc2F)C1)c1ccccn1` [Example 91, N-((1S,3r)-3-(4-(2-fluorophenyl)-5-(pyrazin-2-yl)-4H-1,2,4-triazol-3-yl)cyclobutyl)picolinamide], the IC50 (HEK293; [3]) was 355 nM and the IC50 (TNKS2; [2]) was 280 nM.
For `CCOc1ccc(C(=O)N[C@H]2C[C@H](c3nnc(-c4ccc(OCC)cn4)n3-c3ccccc3F)C2)nc1` [Example 58, 5-ethoxy-N-((1S,3r)-3-(5-(5-ethoxypyridin-2-yl)-4-(2-fluorophenyl)-4H-1,2,4-triazol-3-yl)cyclobutyl)picolinamide], the IC50 (HEK293; [1]) was 10 nM and the IC50 (TNKS2; [2]) was 2 nM.
For `CCOc1ccc(-c2nnc(C34CC(NC(=O)c5ccnc6cccnc56)(C3)C4)n2-c2cccnc2)nc1` [Example 166, N-(3-(5-(5-ethoxypyridin-2-yl)-4-(pyridin-3-yl)-4H-1,2,4-triazol-3-yl)bicyclo[1.1.1]pentan-1-yl)-1,5-naphthyridine-4-carboxamide], the IC50 (HEK293; [4]) was 30 nM and the IC50 (TNKS2; [2]) was 9.6 nM.
`CCOc1ccc(-c2nnc([C@H]3C[C@H](NC(=O)c4ccccc4)C3)n2-c2ccccc2Cl)nc1` [Example 136, N-((1S,3r)-3-(4-(2-chlorophenyl)-5-(5-ethoxypyridin-2-yl)-4H-1,2,4-triazol-3-yl)cyclobutyl)benzamide] was tested, and the IC50 (HEK293; [1]) was 16 nM and the IC50 (TNKS2; [2]) was 6.6 nM.
Work on `CCOc1ccc(-c2nnc([C@H]3C[C@H](NC(=O)c4cccc(C#N)n4)C3)n2-c2ccccc2F)nc1` [Example 53, 6-cyano-N-((1S,3r)-3-(5-(5-ethoxypyridin-2-yl)-4-(2-fluorophenyl)-4H-1,2,4-triazol-3-yl)cyclobutyl)picolinamide] yielded an IC50 (HEK293; [1]) of 13 nM and an IC50 (TNKS2; [2]) of 3.7 nM.
Work on `O=C(N[C@H]1C[C@H](c2nnc(-c3ccncn3)n2-c2ccccc2Cl)C1)c1ccccn1` [Example 10, N-((1S,3r)-3-(4-(2-chlorophenyl)-5-(pyrimidin-4-yl)-4H-1,2,4-triazol-3-yl)cyclobutyl)picolinamide] yielded an IC50 (HEK293; [4]) of 0.2 nM and an IC50 (TNKS2; [2]) of 1.5 nM.
With `O=C(N[C@H]1C[C@H](c2nnc(-c3ccncn3)n2-c2ccccc2Cl)C1)c1cccc2ncccc12` [Example 7, N-((1S,3r)-3-(4-(2-chlorophenyl)-5-(pyrimidin-4-yl)-4H-1,2,4-triazol-3-yl)cyclobutyl)quinoline-5-carboxamide] the IC50 (HEK293; [1]) was 750 nM and the IC50 (TNKS2; [2]) was 350 nM.
In the case of `[2H]C([2H])([2H])C([2H])([2H])Oc1ccc(-c2nnc([C@H]3C[C@H](NC(=O)c4ccnc5cc(F)cnc45)C3)n2-c2ccccc2F)nc1` [Example 94, N-((1S,3r)-3-(5-(5-(ethoxy-d5)pyridin-2-yl)-4-(2-fluorophenyl)-4H-1,2,4-triazol-3-yl)cyclobutyl)-7-fluoro-1,5-naphthyridine-4-carboxamide], the IC50 (HEK293; [4]) is reported as 0.45 nM and the IC50 (TNKS2) is reported as 2.7 nM.
`O=C(N[C@H]1C[C@H](c2nnc(-c3ccncn3)n2-c2ccccc2Cl)C1)c1ccccc1` [Example 12, N-((1S,3r)-3-(4-(2-chlorophenyl)-5-(pyrimidin-4-yl)-4H-1,2,4-triazol-3-yl)cyclobutyl)benzamide] gave an IC50 (HEK293; [1]) of 3 nM and an IC50 (TNKS2; [2]) of 5.5 nM.
In the case of `O=C(N[C@H]1C[C@H](c2nnc(-c3ccncn3)n2-c2ccccc2Cl)C1)c1ncccc1F` [Example 18, N-((1S,3r)-3-(4-(2-chlorophenyl)-5-(pyrimidin-4-yl)-4H-1,2,4-triazol-3-yl)cyclobutyl)-3-fluoropicolinamide], the IC50 (HEK293; [1]) is reported as 57 nM and the IC50 (TNKS2; [2]) is reported as 37 nM.
`O=C(N[C@H]1C[C@H](c2nnc(-c3nccs3)n2-c2ccccc2Cl)C1)c1ccc(F)cc1` [Example 44, N-((1S,3r)-3-(4-(2-chlorophenyl)-5-(thiazol-2-yl)-4H-1,2,4-triazol-3-yl)cyclobutyl)-4-fluorobenzamide] showed an IC50 (HEK293; [1]) of 50 nM and an IC50 (TNKS2; [2]) of 13 nM.
`CCOc1ccc(-c2nnc([C@H]3C[C@H](NC(=O)c4cc5ccccc5cn4)C3)n2-c2ccccc2F)nc1` [Example 99, N-((1S,3r)-3-(5-(5-ethoxypyridin-2-yl)-4-(2-fluorophenyl)-4H-1,2,4-triazol-3-yl)cyclobutyl)isoquinoline-3-carboxamide] gave an IC50 (HEK293; [1]) of 18 nM and an IC50 (TNKS2; [2]) of 5.4 nM.
In the case of `O=C(N[C@H]1C[C@H](c2nnc(-c3ccccn3)n2-c2ccccc2F)C1)c1ccc2cnccc2n1` [Example 192, N-((1S,3r)-3-(4-(2-fluorophenyl)-5-(pyridin-2-yl)-4H-1,2,4-triazol-3-yl)cyclobutyl)-1,6-naphthyridine-2-carboxamide], the IC50 (HEK293; [1]) is reported as 5.3 nM and the IC50 (TNKS2; [2]) is reported as 4.3 nM.
Work on `CCOc1ccc(-c2nnc([C@H]3C[C@H](NC(=O)c4ccccc4)C3)n2-c2ccccc2F)nc1` [Example 52, N-((1S,3r)-3-(5-(5-ethoxypyridin-2-yl)-4-(2-fluorophenyl)-4H-1,2,4-triazol-3-yl)cyclobutyl)benzamide] yielded an IC50 (HEK293; [1]) of 73 nM and an IC50 (TNKS2; [2]) of 9.5 nM.
`CCOc1ccc(-c2nnc([C@H]3C[C@H](NC(=O)c4cc5sc(C)cc5[nH]4)C3)n2-c2ccccc2F)nc1` [Example 150, N-((1S,3r)-3-(5-(5-ethoxypyridin-2-yl)-4-(2-fluorophenyl)-4H-1,2,4-triazol-3-yl)cyclobutyl)-2-methyl-4H-thieno[3,2-b]pyrrole-5-carboxamide] gave an IC50 (HEK293; [1]) of 16 nM and an IC50 (TNKS2; [2]) of 9.5 nM.
`CCOc1ccc(-c2nnc([C@H]3C[C@H](NC(=O)c4nc5ccccc5[nH]4)C3)n2-c2ccccc2)nc1` [Example 73, N-((1r,3r)-3-(5-(5-ethoxypyridin-2-yl)-4-phenyl-4H-1,2,4-triazol-3-yl)cyclobutyl)-1H-benzo[d]imidazole-2-carboxamide] gave an IC50 (HEK293; [1]) of 102 nM and an IC50 (TNKS2; [2]) of 7 nM.
